This is an account of results in DBAASP.

Common to all, as to assay: ≥ marks a high value that may be exact or a test limit, other limits are often not marked, values filed in µg/mL are converted to µM
Test [1] relates to Bacillus subtilis KCTC 1998.
In test [2] the test system is Pseudomonas aeruginosa 4007.
Test [3] has as its system Staphylococcus aureus ATCC 29213.
Test [4] deals with Staphylococcus epidermidis ATCC 12228.
Test [5] relates to Pseudomonas aeruginosa 3543.
The test system of test [6] is Pseudomonas aeruginosa ATCC 15692.
Test [7] concerns Listeria monocytogenes ATCC 3710.
Test [8] relates to Escherichia coli CCARM 1238.
For test [9], the system named is Escherichia coli ATCC 25922.
Test [10] relates to Staphylococcus aureus 3518.
Test [11] has as its system Proteus vulgaris KCTC 2433.
Test [12] has as its system Escherichia coli DH5alpha.
For test [13], the system named is Bacillus magaterium AB90008.
The test system of test [14] is Pseudomonas putida.
For test [15], the system named is Klebsiella oxytoca AB2010143.
The test system of test [16] is Micrococcus luteus AB2010179.
Test [17] has as its system Enterobacter cloacae AB2010162.
The test system of test [18] is Salmonella enterica AB2010185.
For test [19], the system named is Pseudomonas fluorescens.
For test [20], the system named is Staphylococcus aureus AB94004.
Test [21] concerns Fusarium solani.
Test [22] deals with Staphylococcus aureus ATCC 25923.
Test [23] has as its system Candida albicans ATCC 90028.
The test system of test [24] is Fusarium oxysporum.
In test [25] the test system is Cryptococcus neoformans ATCC 28957.
The subject of test [26] is Xanthomonas campestris pv. citri.
In test [27] the test system is Bacillus subtilis ATCC 23857.
Test [28] deals with Trichoderma asperellum.
Test [29] deals with Pseudomonas syringae pv. tabaci.
The subject of test [30] is Bacillus cereus ATCC 14579.
Test [31] concerns Ramulariopsis gossypii.
In test [32] the test system is Fusarium oxysporum f.sp. vasinfectum.
Test [33] relates to Pseudomonas aeruginosa ATCC 27853.
Test [34] has as its system Pectobacterium carotovorum.
The test system of test [35] is Enterococcus faecium.
Test [36] relates to Enterococcus faecalis A4.
The subject of test [37] is Enterococcus faecalis 1F-1.
The subject of test [38] is Escherichia coli W3110.
The subject of test [39] is Staphylococcus aureus 215.
In test [40] the test system is Pseudomonas aeruginosa PA14.
The subject of test [41] is Acinetobacter baumannii AB5075.
The subject of test [42] is Bacillus subtilis ATCC 6051.
Test [43] concerns Bacillus licheniformis ATCC 14580.
The subject of test [44] is Enterococcus faecium 5F-10.
The test system of test [45] is Staphylococcus aureus.
In test [46] the test system is Escherichia coli NDM.
Test [47] has as its system Staphylococcus aureus MR.
Test [48] concerns Bacillus amyloliquefaciens ATCC 23842.

≈ marks a conversion by molar mass, not a printed value. Where “and” joins values, the source holds several entries; their conditions need not be identical. Identical values can stand only once.

One may read the MIC as the least concentration at which growth counts as inhibited. For `CC[C@H](C)[C@H](NC(=O)[C@H](Cc1ccccc1)NC(=O)[C@H](CCCN=C(N)N)NC(=O)[C@H](CC(C)C)NC(=O)[C@@H](N)Cc1ccccc1)C(=O)NCC(=O)N[C@@H](CO)C(=O)N[C@H](C(=O)N[C@@H](CCCCN)C(=O)N[C@@H](Cc1cnc[nH]1)C(=O)NCC(=O)N[C@@H](CCCCN)C(=O)NCC(=O)N[C@@H](Cc1cnc[nH]1)C(=O)N[C@@H](CC(C)C)C(=O)N[C@H](C(=O)N[C@@H](Cc1cnc[nH]1)C(=O)N[C@@H](Cc1cnc[nH]1)C(=O)N[C@H](C(=O)NCC(=O)N[C@H](C(=O)N[C@@H](C)C(=O)N[C@@H](CC(C)C)C(N)=O)C(C)C)[C@@H](C)CC)C(C)C)C(C)C` [FLRFIGSVKHGKGHLVHHIGVAL], the minimum inhibitory concentration (MIC) in test [1] was 4 µM (≈ 10.1 µg/mL); in test [2] it was 2 µM (≈ 5.04 µg/mL); in [3], 8 µM (≈ 20.2 µg/mL); in test [4] it was 4 µM and 8 µM; in test [5] it was 4 µM (≈ 10.1 µg/mL); in test [6], ≥ 32 µM. Besides, the minimal inhibitory concentration (MIC) in [7] is 4 µM (≈ 10.1 µg/mL); in test [8], 2 µM (≈ 5.04 µg/mL); in test [9], 2 µM and 4 µM; in [10], 8 µM (≈ 20.2 µg/mL); in test [11], 4 µM and 8 µM.
For the compound `CC[C@H](C)[C@H](NC(=O)[C@H](CC(C)C)NC(=O)[C@H](CCCCN)NC(=O)[C@H](CC(C)C)NC(=O)[C@H](C)NC(=O)CNC(=O)[C@H](CCCCN)NC(=O)[C@H](C)NC(=O)[C@H](CC(C)C)NC(=O)[C@H](C)NC(=O)CNC(=O)[C@H](Cc1c[nH]c2ccccc12)NC(=O)[C@@H](N)Cc1ccccc1)C(=O)N1CCC[C@H]1C(=O)N[C@@H](CO)C(=O)N[C@@H](CC(C)C)C(=O)N[C@H](C(=O)N[C@@H](CO)C(=O)N[C@@H](CO)C(=O)N[C@@H](Cc1ccccc1)C(=O)N[C@H](C(N)=O)[C@@H](C)O)C(C)C` [FWGALAKGALKLIPSLVSSFT], the minimal inhibitory concentration (MIC) was ≥ 40 µM in [12]; 1.5 µM (≈ 3.31 µg/mL) in test [13]; ≥ 35 µM in test [14]; ≥ 45 µM in [15]; 1.5 µM (≈ 3.31 µg/mL) in [16]; ≥ 45 µM in test [17]. In addition, the results for the MIC in [18], in test [19] and in test [20] were ≥ 40 µM, ≥ 50.5 µM and 6.9 µM (≈ 15.2 µg/mL), respectively.
`CSCC[C@H](NC(=O)[C@H](Cc1ccccc1)NC(=O)CNC(=O)[C@H](Cc1cnc[nH]1)NC(=O)[C@H](CC(C)C)NC(=O)[C@H](CO)NC(=O)CN)C(=O)N[C@@H](Cc1ccc(O)cc1)C(=O)N[C@@H](CCCCN)C(=O)N[C@@H](Cc1ccc(O)cc1)C(=O)N[C@@H](CC(C)C)C(=O)N[C@@H](CCCCN)C(=O)N[C@@H](CC(N)=O)C(=O)N[C@@H](CCSC)C(=O)N[C@H](C(=O)N[C@@H](CC(C)C)C(=O)N[C@@H](CC(N)=O)C(=O)N[C@@H](CC(C)C)C(=O)N[C@@H](Cc1ccccc1)C(N)=O)C(C)C` [GSLHGFMYKYLKNMVLNLF]: the MIC in test [21] is ≥ 32 µM; in [22], 13.3 µM (≈ 30.3 µg/mL); in test [23], 4 µM (≈ 9.1 µg/mL); in test [24], 16 µM (≈ 36.4 µg/mL); in test [25] it was 10.7 µM (≈ 24.3 µg/mL); in [26], ≥ 64 µM. For the same compound, the minimal inhibitory concentration (MIC) is 16 µM (≈ 36.4 µg/mL) in [27]; 6.67 µM (≈ 15.2 µg/mL) in [28]; 32 µM (≈ 72.8 µg/mL) in [9]; 16 µM (≈ 36.4 µg/mL) in [29]; ≥ 64 µM in test [30]; 4 µM (≈ 9.1 µg/mL) in [31]. The MIC in test [32] is 16 µM (≈ 36.4 µg/mL); in [33], 26.7 µM (≈ 60.7 µg/mL); in test [34], ≥ 128 µM.
On to `CC[C@H](C)[C@H](NC(=O)[C@H](C)NC(=O)[C@@H](NC(=O)[C@@H]1CCCN1C(=O)[C@H](CCCN=C(N)N)NC(=O)[C@H](CCCCN)NC(=O)[C@H](CO)NC(=O)[C@@H](NC(=O)[C@H](CC(C)C)NC(=O)[C@@H](NC(=O)[C@H](CCCN=C(N)N)NC(=O)[C@@H](NC(=O)[C@H](CC(C)C)NC(=O)[C@@H](N)CCCN=C(N)N)C(C)C)[C@@H](C)CC)C(C)C)C(C)C)C(=O)N[C@@H](CCCCN)C(=O)N1CCC[C@H]1C(=O)N[C@@H](Cc1ccc(O)cc1)C(=O)N[C@@H](Cc1ccccc1)C(=O)N[C@@H](CCCN=C(N)N)C(=O)N[C@@H](CC(C)C)C(=O)O` [RLVRILVSKRPVAIKPYFRL], for which the MIC in test [35] is 1.65 µM (≈ 4 µg/mL); in test [36] it was 1.65 µM (≈ 4 µg/mL); in test [3], > 26.4 µM; in test [37], 1.65 µM (≈ 4 µg/mL); in [38] it was 4 µM (≈ 9.7 µg/mL); in test [39], 26.4 µM (≈ 64 µg/mL). The minimum inhibitory concentration (MIC) in test [40] amounted to 8 µM (≈ 19.4 µg/mL); in [41], 2 µM (≈ 4.85 µg/mL); in test [42], 26.4 µM (≈ 64 µg/mL); in [30], 26.4 µM (≈ 64 µg/mL); in test [43], 26.4 µM (≈ 64 µg/mL); in test [44], 0.825 µM (≈ 2 µg/mL). The minimum inhibitory concentration (MIC) is 13.2 µM (≈ 32 µg/mL) in test [45], 8 µM (≈ 19.4 µg/mL) in [46], 26.4 µM (≈ 64 µg/mL) in test [47] and 26.4 µM (≈ 64 µg/mL) in test [48].
